Assay results as given in publication PMC12198282, “Application of a high-density microelectrode array assay using a 3D human iPSC-derived brain microphysiological system model for in vitro neurotoxicity screening of environmental compounds” (Archives of Toxicology, 2025).
Like-named read-outs stand apart in the source and are kept apart here.

Experiments:
[1] = system: 2D rat cortical cultures; conditions: cited from earlier work; for AC50: rNFA mc5; for hitc CCTE Shafer MEA dev active electrodes number: key: 1 (active); 0 (inactive); for hitc CCTE Shafer MEA dev burst duration mean: key: 1 (active); 0 (inactive); for hitc CCTE Shafer MEA dev burst rate: key: 1 (active); 0 (inactive); for hitc CCTE Shafer MEA dev bursting electrodes number: key: 1 (active); 0 (inactive); for hitc CCTE Shafer MEA dev correlation coefficient mean: key: 1 (active); 0 (inactive); for hitc CCTE Shafer MEA dev firing rate mean: key: 1 (active); 0 (inactive); for hitc CCTE Shafer MEA dev inter network spike interval mean: key: 1 (active); 0 (inactive); for hitc CCTE Shafer MEA dev interburst interval mean: key: 1 (active); 0 (inactive); for hitc CCTE Shafer MEA dev mutual information norm: key: 1 (active); 0 (inactive); for hitc CCTE Shafer MEA dev network spike duration std: key: 1 (active); 0 (inactive); for hitc CCTE Shafer MEA dev network spike number: key: 1 (active); 0 (inactive); for hitc CCTE Shafer MEA dev network spike peak: key: 1 (active); 0 (inactive); for hitc CCTE Shafer MEA dev per burst interspike interval: key: 1 (active); 0 (inactive); for hitc CCTE Shafer MEA dev per burst spike percent: key: 1 (active); 0 (inactive); for hitc CCTE Shafer MEA dev per network spike spike number mean: key: 1 (active); 0 (inactive); for hitc CCTE Shafer MEA dev per network spike spike percent: key: 1 (active); 0 (inactive); for hitc CCTE Shafer MEA dev spike duration mean: key: 1 (active); 0 (inactive)
[2] = system: human iPSC-derived 3D BrainSpheres; experiment: BrainSphere MEA assay (HD-MEA, 13-day exposure, concentration-response); assay type: cell-based; conditions: for EC (benchmark response 1.349 SD): 312 h; for AC50: Supplement 3 prints it also for curves with hit call 0; for hitc Mean.Spheroid.Burst.Duration: key: 1 (active); 0 (inactive); for hitc Mean.Spheroid.Burst.ISI: key: 1 (active); 0 (inactive); for hitc Mean.Spheroid.Burst.Peak.Firing.Rate: key: 1 (active); 0 (inactive); for hitc Mean.Spheroid.Firing.Rate: key: 1 (active); 0 (inactive); for hitc Mean.Spheroid.IBI: key: 1 (active); 0 (inactive); for hitc Mean.Spheroid.Nonburst.ISI: key: 1 (active); 0 (inactive); for hitc Mean.Spheroid.Spikes.per.Burst.per.Electrode: key: 1 (active); 0 (inactive); for hitc Mean.Spheroid.Spikes.per.Burst: key: 1 (active); 0 (inactive); for hitc Spheroid.Burst.Frequency: key: 1 (active); 0 (inactive); for hitc Spheroid.Spike.Amplitude.90th.Percentile: key: 1 (active); 0 (inactive)
Experimental: A volume of 1 ml of Tergazyme (1% solution in deionized water) was added to each well of the MaxTwo 6-Well Plate (MaxWell Biosystems) and incubated overnight under constant gyratory shaking (88 RPM) at 37 °C and 5% CO2. The next day, Tergazyme solution was removed, and plates were washed with distilled water and ethanol. After remaining ethanol was evaporated, wells were washed with PBS. Then, 200 µl of Poly-D-Lysine (Gibco, A38904 - 01) was added on top of the electrodes and incubated at 37 °C and 5% CO2 for 3 h (humidified). Poly-D-Lysine was then removed, and wells were coated with 100 µl of 0.1 mg/ml laminin coating solution (Sigma-Aldrich, L2020 - 1 mg) and incubated for 2 h at 37 ℃ and 5% CO2 (humidified). The laminin was removed after incubation. Using a 1 ml micropipette, 1 ml of medium containing BrainSpheres (7 weeks differentiated), approximately 25 BrainSpheres per ml, was plated on top of the HD-MEA chip (Fig. 1A). Afterwards, the plate was placed in an incubator at 37 °C and 5% CO2 and moved in circles to accumulate the BrainSpheres on top of the electrode area (Fig. 1A). The plate was kept in an incubator (humidified) for 2 days to allow attachment of the BrainSpheres with no gyratory shaking of the plates.
The MaxTwo high-density microelectrode array system (MaxWell Biosystems AG, Zurich, Switzerland) was used to measure neural activity with MaxTwo 6-well plates, where every well includes an integrated chip with 26,400 platinum electrodes arranged in an area of 3.85 × 2.10 mm^2 ([…]) (Muller et al. [2015]). The data were recorded and analyzed with the MaxLab Live Software (version 22.2.22). First, the MaxLab live ActivityScan Assay was used to identify the activity and positioning of the BrainSpheres on the array by scanning all the 26,400 electrodes in 29 configurations in a well (Assay Parameters: Configuration = Full; Recording time per configuration = 60 s (s)). The settings gain = 512, high-pass-filter (HPF): ~ 1 Hz and spike threshold = 5 X root-mean square (RMS) noise were used for all HD-MEA recordings. Circular regions of interest (ROI) were manually selected in the Activity Map where neuronal activity was apparent by an increased activity (Fig. 2). Over the course of the 13-day experiment, the same selected regions and electrodes were measured using the MaxLab Live Network Assay (600 s recording time).
A custom analysis framework was used to extract the MaxLab Live neuronal metrics for the individual BrainSpheres. For this, electrodes comprising a single ROI (i.e., individual BrainSphere; Fig. 2D) were grouped using distance-based clustering (fcluster method of Scipy library, Python 3.7) and neural metrics were calculated for the clustered electrodes for every ROI separately. Figure 2E presents a raster plot illustrating the activity associated with individual Regions of Interest (ROIs). […] Ten MaxLab Live neural metrics (endpoints) were evaluated from the MaxLab live ActivityScan and Network Assay in this study. See Table 3 for the endpoint definitions, tuned parameters, and activity type (general versus network connectivity).
The BrainSphere MEA assay measured changes in neural activity during a 13-day chemical exposure. The first recording day of the concentration–response screening protocol (day of exposure (DOE) 0) occurred after 7 weeks of BrainSphere differentiation, 48 h after plating on HD-MEA plates (Fig. 1B). The study included at least three biological replicates (one well per plate) from separate experiments (e.g., three different plates on three different days) and each well included multiple BrainSpheres which were considered technical replicates.

[3] = AUC over 13-day exposure, tcplfit2
[4] = tcplfit2 BMD at benchmark response (1.349*SD of baseline controls)
[5] = tcplfit2 output ACC, activity cutoff in Supplemental Table 1

For `C/C(=C/C=C/[C@@H](C)C(=O)O)[C@H]1CN[C@H](C(=O)O)[C@H]1CC(=O)O` [Domoic acid], the AC50 ([1]; aenm active_electrodes_number, read-out: ac50 CCTE_Shafer_MEA_dev_active_electrodes_number) is listed as 970 nM, the AC50 ([1]; aenm burst_duration_mean, read-out: ac50 CCTE_Shafer_MEA_dev_burst_duration_mean) is listed as 992 nM and the AC50 ([1]; aenm burst_rate, read-out: ac50 CCTE_Shafer_MEA_dev_burst_rate) is listed as 131 nM. The AC50 ([1]; aenm bursting_electrodes_number, read-out: ac50 CCTE_Shafer_MEA_dev_bursting_electrodes_number) was 1280 nM, the AC50 ([1]; aenm correlation_coefficient_mean, read-out: ac50 CCTE_Shafer_MEA_dev_correlation_coefficient_mean) was 1560 nM and the AC50 ([1]; aenm firing_rate_mean, read-out: ac50 CCTE_Shafer_MEA_dev_firing_rate_mean) was 68 nM. For the same molecule, the AC50 ([1]; aenm inter_network_spike_interval_mean, read-out: ac50 CCTE_Shafer_MEA_dev_inter_network_spike_interval_mean) was 160 nM, the AC50 ([1]; aenm interburst_interval_mean, read-out: ac50 CCTE_Shafer_MEA_dev_interburst_interval_mean) was 32 nM and the AC50 ([1]; aenm mutual_information_norm, read-out: ac50 CCTE_Shafer_MEA_dev_mutual_information_norm) was 51 nM. The AC50 ([1]; aenm network_spike_duration_std, read-out: ac50 CCTE_Shafer_MEA_dev_network_spike_duration_std) was 259 nM, the AC50 ([1]; aenm network_spike_number, read-out: ac50 CCTE_Shafer_MEA_dev_network_spike_number) was 22 nM and the AC50 ([1]; aenm network_spike_peak, read-out: ac50 CCTE_Shafer_MEA_dev_network_spike_peak) was 1830 nM. For the same molecule, the AC50 ([1]; aenm per_burst_interspike_interval, read-out: ac50 CCTE_Shafer_MEA_dev_per_burst_interspike_interval) was 1330 nM, the AC50 ([1]; aenm per_burst_spike_percent, read-out: ac50 CCTE_Shafer_MEA_dev_per_burst_spike_percent) was 2060 nM and the AC50 ([1]; aenm per_network_spike_spike_number_mean, read-out: ac50 CCTE_Shafer_MEA_dev_per_network_spike_spike_number_mean) was 1050 nM. For the same molecule, the AC50 ([1]; aenm per_network_spike_spike_percent, read-out: ac50 CCTE_Shafer_MEA_dev_per_network_spike_spike_percent) was 2340 nM, the AC50 ([1]; aenm spike_duration_mean, read-out: ac50 CCTE_Shafer_MEA_dev_spike_duration_mean) was 1120 nM and the “hitc CCTE_Shafer_MEA_dev_active_electrodes_number” value ([1]; rNFA mc5 hit call, aenm active_electrodes_number) was 1. For the same molecule, the “hitc CCTE_Shafer_MEA_dev_burst_duration_mean” value ([1]; rNFA mc5 hit call, aenm burst_duration_mean) was 1, the “hitc CCTE_Shafer_MEA_dev_burst_rate” value ([1]; rNFA mc5 hit call, aenm burst_rate) was 1 and the “hitc CCTE_Shafer_MEA_dev_bursting_electrodes_number” value ([1]; rNFA mc5 hit call, aenm bursting_electrodes_number) was 1. For the same molecule, the “hitc CCTE_Shafer_MEA_dev_correlation_coefficient_mean” value ([1]; rNFA mc5 hit call, aenm correlation_coefficient_mean) was 1, the “hitc CCTE_Shafer_MEA_dev_firing_rate_mean” value ([1]; rNFA mc5 hit call, aenm firing_rate_mean) was 1 and the “hitc CCTE_Shafer_MEA_dev_inter_network_spike_interval_mean” value ([1]; rNFA mc5 hit call, aenm inter_network_spike_interval_mean) was 1. For the same molecule, the “hitc CCTE_Shafer_MEA_dev_interburst_interval_mean” value ([1]; rNFA mc5 hit call, aenm interburst_interval_mean) was 1, the “hitc CCTE_Shafer_MEA_dev_mutual_information_norm” value ([1]; rNFA mc5 hit call, aenm mutual_information_norm) was 1 and the “hitc CCTE_Shafer_MEA_dev_network_spike_duration_std” value ([1]; rNFA mc5 hit call, aenm network_spike_duration_std) was 1. The “hitc CCTE_Shafer_MEA_dev_network_spike_number” value ([1]; rNFA mc5 hit call, aenm network_spike_number) was 1, the “hitc CCTE_Shafer_MEA_dev_network_spike_peak” value ([1]; rNFA mc5 hit call, aenm network_spike_peak) was 1 and the “hitc CCTE_Shafer_MEA_dev_per_burst_interspike_interval” value ([1]; rNFA mc5 hit call, aenm per_burst_interspike_interval) was 1. For the same molecule, the “hitc CCTE_Shafer_MEA_dev_per_burst_spike_percent” value ([1]; rNFA mc5 hit call, aenm per_burst_spike_percent) was 1, the “hitc CCTE_Shafer_MEA_dev_per_network_spike_spike_number_mean” value ([1]; rNFA mc5 hit call, aenm per_network_spike_spike_number_mean) was 1 and the “hitc CCTE_Shafer_MEA_dev_per_network_spike_spike_percent” value ([1]; rNFA mc5 hit call, aenm per_network_spike_spike_percent) was 1. The “hitc CCTE_Shafer_MEA_dev_spike_duration_mean” value ([1]; rNFA mc5 hit call, aenm spike_duration_mean) was 1, the “Bioactivity in the rNFA (in words)” value ([1]; ref Brown et al. [2016], Carstens et al. [2022], Frank et al. [2017b], Shafer et al. [2019], ToxCast invitrodb (v4.2)) was “alter multiple parameters of network formation” and the “Difference of minimum potency between BrainSphere MEA assay and rNFA” value ([2]; 5th percentile of AC50 values by chemical, above 0.5 = more potent in the rNFA) was “more than 0.5 log10 µM”. The “hitc Mean.Spheroid.Burst.Duration” value [2, 3] was 1, the “hitc Mean.Spheroid.Burst.ISI” value [2, 3] was 1 and the “hitc Mean.Spheroid.Burst.Peak.Firing.Rate” value [2, 3] was 1. The “hitc Mean.Spheroid.Firing.Rate” value [2, 3] was 1, the “hitc Mean.Spheroid.IBI” value [2, 3] was 1 and the “hitc Mean.Spheroid.Nonburst.ISI” value [2, 3] was 1. The “hitc Mean.Spheroid.Spikes.per.Burst” value [2, 3] was 1, the “hitc Mean.Spheroid.Spikes.per.Burst.per.Electrode” value [2, 3] was 1 and the “hitc Spheroid.Burst.Frequency” value [2, 3] was 1. For the same molecule, the “hitc Spheroid.Spike.Amplitude.90th.Percentile” value [2, 3] was 0, the EC (benchmark response 1.349 SD) ([2]; Homo sapiens, read-out: BMD Mean.Spheroid.Burst.ISI) was 2.6 µM and the EC (benchmark response 1.349 SD) ([2]; Homo sapiens, read-out: BMD Mean.Spheroid.Nonburst.ISI) was 0.99 µM. It also gave an EC50 ([2]; Homo sapiens, read-out: Mean potency) of 3320 nM, an EC50 ([2]; Homo sapiens, read-out: Minimum potency) of 1300 nM and an AC50 ([2]; Homo sapiens, read-out: ac50 Mean.Spheroid.Burst.Duration, concentration at 50% maximal activity) of 3600 nM. For the same molecule, the AC50 ([2]; Homo sapiens, read-out: ac50 Mean.Spheroid.Burst.ISI, concentration at 50% maximal activity) was 4400 nM, the AC50 ([2]; Homo sapiens, read-out: ac50 Mean.Spheroid.Burst.Peak.Firing.Rate, concentration at 50% maximal activity) was 3100 nM and the AC50 ([2]; Homo sapiens, read-out: ac50 Mean.Spheroid.Firing.Rate, concentration at 50% maximal activity) was 5400 nM. It also gave an AC50 ([2]; Homo sapiens, read-out: ac50 Mean.Spheroid.IBI, concentration at 50% maximal activity) of 3550 nM, an AC50 ([2]; Homo sapiens, read-out: ac50 Mean.Spheroid.Nonburst.ISI, concentration at 50% maximal activity) of 1000 nM and an AC50 ([2]; Homo sapiens, read-out: ac50 Mean.Spheroid.Spikes.per.Burst, concentration at 50% maximal activity) of 3000 nM. For the same molecule, the AC50 ([2]; Homo sapiens, read-out: ac50 Mean.Spheroid.Spikes.per.Burst.per.Electrode, concentration at 50% maximal activity) was 1700 nM, the AC50 ([2]; Homo sapiens, read-out: ac50 Spheroid.Burst.Frequency, concentration at 50% maximal activity) was 4200 nM and the AC50 ([2]; Homo sapiens, read-out: ac50 Spheroid.Spike.Amplitude.90th.Percentile, concentration at 50% maximal activity) was 15000 nM. For the same molecule, the Percent active ([2]; metrics active out of the total number of metrics screened) was 90%, the AC50 ([2]; read-out: ac50 Mean.Spheroid.Burst.Duration, concentration at 50% maximal activity, listed as L-Domoic acid) was 3580 nM and the AC50 ([2]; read-out: ac50 Mean.Spheroid.Burst.ISI, concentration at 50% maximal activity, listed as L-Domoic acid) was 4360 nM. For the same molecule, the AC50 ([2]; read-out: ac50 Mean.Spheroid.Burst.Peak.Firing.Rate, concentration at 50% maximal activity, listed as L-Domoic acid) was 3100 nM, the AC50 ([2]; read-out: ac50 Mean.Spheroid.Firing.Rate, concentration at 50% maximal activity, listed as L-Domoic acid) was 5410 nM and the AC50 ([2]; read-out: ac50 Mean.Spheroid.Nonburst.ISI, concentration at 50% maximal activity, listed as L-Domoic acid) was 1020 nM. For the same molecule, the AC50 ([2]; read-out: ac50 Mean.Spheroid.Spikes.per.Burst.per.Electrode, concentration at 50% maximal activity, listed as L-Domoic acid) was 1710 nM, the AC50 ([2]; read-out: ac50 Mean.Spheroid.Spikes.per.Burst, concentration at 50% maximal activity, listed as L-Domoic acid) was 2980 nM and the AC50 ([2]; read-out: ac50 Spheroid.Burst.Frequency, concentration at 50% maximal activity, listed as L-Domoic acid) was 4170 nM. For the same molecule, the “BMD Mean.Spheroid.Burst.Duration” value [2, 4] was 2 µM, the “BMD Mean.Spheroid.Burst.Peak.Firing.Rate” value [2, 4] was 2 µM and the “BMD Mean.Spheroid.Firing.Rate” value [2, 4] was 6.6 µM. For the same molecule, the “BMD Mean.Spheroid.IBI” value [2, 4] was 1.9 µM, the “BMD Mean.Spheroid.Spikes.per.Burst” value [2, 4] was 1.3 µM and the “BMD Mean.Spheroid.Spikes.per.Burst.per.Electrode” value [2, 4] was 1.3 µM. The “BMD Spheroid.Burst.Frequency” value [2, 4] was 4.4 µM, the “BMD Spheroid.Spike.Amplitude.90th.Percentile” value [2, 4] was 14 µM and the “ACC Mean.Spheroid.Burst.Duration” value [2, 5] was 1.8 µM. For the same molecule, the “ACC Mean.Spheroid.Burst.ISI” value [2, 5] was 1.8 µM, the “ACC Mean.Spheroid.Burst.Peak.Firing.Rate” value [2, 5] was 1.8 µM and the “ACC Mean.Spheroid.Firing.Rate” value [2, 5] was 9.9 µM. The “ACC Mean.Spheroid.IBI” value [2, 5] was 3.1 µM, the “ACC Mean.Spheroid.Nonburst.ISI” value [2, 5] was 1 µM and the “ACC Mean.Spheroid.Spikes.per.Burst” value [2, 5] was 2.8 µM. The “ACC Mean.Spheroid.Spikes.per.Burst.per.Electrode” value [2, 5] was 1.5 µM, the “ACC Spheroid.Burst.Frequency” value [2, 5] was 3.8 µM and the “ACC Spheroid.Spike.Amplitude.90th.Percentile” value [2, 5] was 18 µM.
